# Data published in patent publication US20240368181A1, “QUINOXALINE DERIVATIVES AND USES THEREOF” (Black Diamond Therapeutics, Inc., priority 2021, published 2024).
# Key:
# Format in all cases: cell-based
# [1] = test system: SNU-16 (FGFR2-amplification) cells; assay: cell proliferation assay (CellTiterGlo), SNU-16 cells; settings: Homo sapiens, 72 hours
# Excerpt: (§1) In some embodiments, the biological assay assess the ability of the compounds to inhibit cell proliferation.
# (§2) In some embodiments, cells (e.g., SNU-16 (FGFR2-amplification) cells) may be suspended and dispensed in plates. In some embodiments, cells (e.g., UM-UC-14 (FGFR3-S249C) cells) may be suspended and dispensed in plates. In some embodiments, cells (e.g., DMS-114 (FGFR1 overexpression) cells) may by suspended and dispensed in plates. In some embodiments, cells (e.g., RT-112 (FGFR3-Tacc3 fusion) cells) may be suspended and dispensed in plates. In some embodiments, to determine the effect of the compounds of the present disclosure on cell proliferation, cells (e.g., SNU-16, UM-UC-14, DMS-114 and […] cells) may be incubated in the presence of vehicle control (e.g., DMSO) or a compound of the present disclosure at varying concentrations and the inhibition of cell growth may be determined by luminescent quantification (e.g., of intracellular ATP content using CellTiterGlo), according to the manufacturers protocol. In some embodiments, to determine the IC50 values, the vehicle-treated cells were normalized as viable cells and the growth was analyzed using a software (e.g., the CDD Vault software (Collaborative Drug Discovery, Burlingame, CA)).
# [2] = test system: UM-UC-14 (FGFR3-S249C) cells; assay: cell proliferation assay (CellTiterGlo), UM-UC-14 cells
# Excerpt: as §1, §2
# [3] = test system: DMS-114 (FGFR1 overexpression) cells; assay: cell proliferation assay (CellTiterGlo), DMS-114 cells; settings: Homo sapiens
# Excerpt: as §1, §2
# [4] = test system: RT-112 (FGFR3-Tacc3 fusion) cells; assay: cell proliferation assay (CellTiterGlo), RT-112 cells; settings: Homo sapiens, RT-112, RT112 cells, 72 hours
# Excerpt: as §1, §2
SMILES,IC50 [1] [nM],"IC50 ([2]; UMUC14, 72 h) [nM]","IC50 ([3]; DMS-114, 72 h) [nM]",IC50 [4] [nM],"IC50 ([2]; UMUC14, 72 hours) [nM]",IC50 ([3]; 72 hours) [nM]
Cc1nc2ccc(Oc3ccc4ncc(-c5cnn(C6CCNCC6)c5)nc4c3C)cc2[nH]1 [Compound 293],20 to 100,20 to 100,100 to 400,20 to 100,,
Cc1nc2ccc(Oc3ccc4ncc(-c5cnn([C@H]6CC[C@@H](N7CCC7)CC6)c5)nc4c3Cl)cc2[nH]1 [Compound 356],20 to 100,20 to 100,100 to 400,20 to 100,,
Cc1nc2ccc(Oc3ccc4ncc(-c5cnn(C[C@H]6CCN(C)C[C@H]6F)c5)nc4c3Cl)cc2[nH]1 [Compound 368],20 to 100,20 to 100,100 to 400,20 to 100,,
Cc1nc2ccc(Oc3ccc4ncc(-c5cnn(CC6CN6)c5)nc4c3Cl)cc2[nH]1 (centres unmarked) [Compound 344],100 to 400,,,100 to 400,100 to 400,≥ 400
Cc1nc2ccc(Oc3ccc4ncc(-c5cnn(CC(C)(C)C#N)c5)nc4c3Cl)cc2[nH]1 [Compound 272],20 to 100,20 to 100,≥ 400,20 to 100,,
Cc1nc2ccc(Oc3ccc4ncc(-c5cnn(C6CCCN(C)C6)c5)nc4c3Cl)cc2[nH]1 (centres unmarked) [Compound 378],20 to 100,20 to 100,≥ 400,20 to 100,,
Cc1nc2ccc(Oc3ccc4ncc(-c5cnn(CC(=O)N6CCC(O)C6)c5)nc4c3Cl)cc2[nH]1 (centres unmarked) [Compound 306],100 to 400,100 to 400,≥ 400,20 to 100,,
Cc1nc2ccc(Oc3ccc4ncc(-c5cnn(C6CN(CC7COC7)C6)c5)nc4c3Cl)cc2[nH]1 [Compound 217],20 to 100,20 to 100,≥ 400,20 to 100,,
Cc1nc2ccc(Oc3ccc4ncc(-c5cnn(CC6CCNCC6)c5)nc4c3C)cc2[nH]1 [Compound 292],100 to 400,20 to 100,≥ 400,100 to 400,,
CCS(=O)(=O)N1CC(n2cc(-c3cnc4ccc(Oc5ccc6nc(C)[nH]c6c5)c(Cl)c4n3)cn2)C1 [Compound 372],20 to 100,20 to 100,≥ 400,20 to 100,,
Cc1nc2ccc(Oc3ccc4ncc(-c5cnn(CC6(O)CC6)c5)nc4c3N3CCOC3=O)c(F)c2[nH]1 [Compound 74],≥ 400,≥ 400,≥ 400,≥ 400,,
Cc1nc2ccc(Oc3ccc4ncc(-c5cnn(C6CCC(F)(F)C6)c5)nc4c3Cl)cc2[nH]1 (centres unmarked) [Compound 211],100 to 400,100 to 400,≥ 400,100 to 400,,
Cc1nc2ccc(Oc3ccc4ncc(-c5cnn(C6CN(CC(=O)N7CC(O)C7)C6)c5)nc4c3Cl)cc2[nH]1 [Compound 235],20 to 100,20 to 100,≥ 400,20 to 100,,
Cc1nc2ccc(Oc3ccc4ncc(-c5cnn([C@@H]6C[C@H]7CC[C@@H](C6)N7C)c5)nc4c3Cl)cc2[nH]1 [Compound 363],20 to 100,20 to 100,≥ 400,20 to 100,,
Cc1nc2ccc(Oc3ccc4ncc(-c5cnn(CC6(C)CCOC6)c5)nc4c3Cl)cc2[nH]1 (centres unmarked) [Compound 357],20 to 100,20 to 100,≥ 400,20 to 100,,
Cc1nc2ccc(Oc3ccc4ncc(-c5cnn([C@H]6C[C@H]7CC[C@@H](C6)N7)c5)nc4c3Cl)cc2[nH]1 [Compound 362],20 to 100,20 to 100,100 to 400,20 to 100,,
Cc1nc2ccc(Oc3ccc4ncc(-c5cnn(CC6C7COCC76)c5)nc4c3Cl)cc2[nH]1 (centres unmarked) [Compound 365],20 to 100,20 to 100,≥ 400,20 to 100,,
Cc1nc2ccc(Oc3ccc4ncc(-c5cnn(C[C@H](C)O)c5)nc4c3Cl)cc2[nH]1 [Compound 119],20 to 100,< 20,100 to 400,20 to 100,,
Cc1nc2ccc(Oc3ccc4ncc(-c5cnn(CC6CN(CC(=O)N7CCC7)C6)c5)nc4c3Cl)cc2[nH]1 [Compound 320],20 to 100,100 to 400,≥ 400,20 to 100,,
Cc1nc2ccc(Oc3ccc4ncc(-c5cnn(C67CCN(CC6)C7)c5)nc4c3Cl)cc2[nH]1 [Compound 295],≥ 400,≥ 400,≥ 400,≥ 400,,
Cc1nc2ccc(Oc3ccc4ncc(-c5cnn(C6CC7(CNC7)C6)c5)nc4c3Cl)cc2[nH]1 [Compound 256],100 to 400,100 to 400,≥ 400,100 to 400,,

SMILES,IC50 [1] [nM],"IC50 ([2]; UMUC14, 72 h) [nM]","IC50 ([3]; DMS-114, 72 h) [nM]",IC50 [4] [nM],"IC50 ([2]; UMUC14, 72 hours) [nM]",IC50 ([3]; 72 hours) [nM]
Cc1nc2ccc(Oc3ccc4ncc(-c5cnn(C6CCS(=N)(=O)CC6)c5)nc4c3Cl)cc2[nH]1 (centres unmarked) [Compound 85],20 to 100,100 to 400,≥ 400,20 to 100,,
CN=S1(=O)CCC(n2cc(-c3cnc4ccc(Oc5ccc6nc(C)[nH]c6c5)c(Cl)c4n3)cn2)CC1 (centres unmarked) [Compound 80],20 to 100,20 to 100,≥ 400,20 to 100,,
Clc1c(Oc2ccn3cncc3c2)ccc2ncc(-c3cnn(CC4CCNCC4)c3)nc12 [Compound 341],≥ 400,≥ 400,≥ 400,≥ 400,,
Cc1nc2ccc(Oc3ccc4ncc(-c5cnn([C@H]6C[C@@H](N7CC(O)C7)C6)c5)nc4c3Cl)cc2[nH]1 [Compound 213],20 to 100,20 to 100,100 to 400,20 to 100,,
Cc1nc2ccc(Oc3ccc4ncc(-c5cnn(C6CC7(C6)CN(C6COC6)C7)c5)nc4c3Cl)cc2[nH]1 [Compound 218],20 to 100,20 to 100,100 to 400,20 to 100,,
Cc1nc2ccc(Oc3ccc4ncc(-c5cnn(CC6CC(F)(F)C6)c5)nc4c3C3=CC(C)(C)OC3(C)C)c(F)c2[nH]1 [Compound 88],20 to 100,20 to 100,100 to 400,20 to 100,,
Cc1nc2ccc(Oc3ccc4ncc(-c5cnn(CCN6CCC(O)C6)c5)nc4c3Cl)cc2[nH]1 (centres unmarked) [Compound 267],20 to 100,20 to 100,≥ 400,20 to 100,,
Cc1nc2ccc(Oc3ccc4ncc(-c5cnn(CC6CC(N7CCC7)C6)c5)nc4c3Cl)cc2[nH]1 (centres unmarked) [Compound 291],20 to 100,20 to 100,≥ 400,20 to 100,,
Cc1nc2ccc(Oc3ccc4ncc(-c5cnn([C@@H](C)CO)c5)nc4c3Cl)c(F)c2[nH]1 [Compound 106],< 20,< 20,100 to 400,< 20,,
Cc1nc2ccc(Oc3ccc4ncc(-c5cnn(CC6CC(F)(F)C6)c5)nc4c3C3=CCOC3)cc2[nH]1 [Compound 179],< 20,< 20,100 to 400,< 20,,
Cc1nc2ccc(Oc3ccc4ncc(-c5cnn(C6CC(C)(O)C6)c5)nc4c3Cl)cc2[nH]1 (centres unmarked) [Compound 250],< 20,20 to 100,≥ 400,< 20,,
Cc1nc2ccc(Oc3ccc4ncc(-c5cnn(CC6CC(F)(F)C6)c5)nc4c3C3=CCCOC3)cc2[nH]1 [Compound 91],20 to 100,20 to 100,≥ 400,20 to 100,,
Cc1nc2ccc(Oc3ccc4ncc(-c5cnn(CC6CCNCC6F)c5)nc4c3Cl)cc2[nH]1 (centres unmarked) [Compound 375],20 to 100,20 to 100,100 to 400,< 20,,
Cc1nc2ccc(Oc3ccc4ncc(-c5cnn(CC6CCNS(=O)(=O)C6)c5)nc4c3Cl)cc2[nH]1 (centres unmarked) [Compound 192],20 to 100,20 to 100,≥ 400,20 to 100,,
Cc1nc2ccc(Oc3ccc4ncc(-c5cnn(C[C@@H]6CCN(C)C[C@H]6F)c5)nc4c3Cl)cc2[nH]1 [Compound 367],20 to 100,20 to 100,100 to 400,< 20,,
Cc1nc2ccc(Oc3ccc4ncc(-c5cnn(C6CN(C7COC7)C6)c5)nc4c3Cl)cc2[nH]1 [Compound 237],20 to 100,20 to 100,100 to 400,< 20,,
CNC(=O)N1CCC(n2cc(-c3cnc4ccc(Oc5ccc6nc(C)[nH]c6c5)c(Cl)c4n3)cn2)CC1 [Compound 321],20 to 100,20 to 100,≥ 400,20 to 100,,
Cc1nc2ccc(Oc3ccc4ncc(-c5cnn([C@H]6CCNC[C@@H]6F)c5)nc4c3Cl)cc2[nH]1 [Compound 369],20 to 100,20 to 100,≥ 400,20 to 100,,
Cc1nc2ccc(Oc3ccc4ncc(-c5cnn([C@H]6C[C@H](O)C6)c5)nc4c3Cl)c(F)c2[nH]1 [Compound 143],100 to 400,≥ 400,≥ 400,100 to 400,,
Cc1nc2ccc(Oc3ccc4ncc(-c5cnn(CC6OCC7(COC7)CO6)c5)nc4c3Cl)cc2[nH]1 [Compound 299],20 to 100,20 to 100,≥ 400,20 to 100,,
